Laboratory results published in ChEMBL document CHEMBL1201862, “PubChem BioAssay data set” (2004).
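Method: 48-hour compound exposure of cells in 96-well plates, five concentrations, linear interpolation of endpoints. GI50: concentration for 50% inhibition of growth.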 Active and inactive are the calls of the source. Rule as the data show it: active = GI50 up to about 1.1 µM and inactive = higher.

Tests used:
Experiment in all cases: growth of human tumour cells (NCI), 48 h
HCT-116 = test system: HCT-116
NCI-H23 = test system: NCI-H23
SF-268 = test system: SF-268
Malme-3M = test system: Malme-3M
ACHN = test system: ACHN
EKVX = test system: EKVX
HOP-92 = test system: HOP-92
MDA-MB-231 = test system: MDA-MB-231
CCRF-CEM = test system: CCRF-CEM
MDA-N = test system: MDA-N
BT-549 = test system: BT-549
SF-295 = test system: SF-295
A498 = test system: A498
HCC 2998 = test system: HCC 2998
COLO 205 = test system: COLO 205
DU-145 = test system: DU-145
SF-539 = test system: SF-539
NCI/ADR-RES = test system: NCI/ADR-RES
HCT-15 = test system: HCT-15
U-251 = test system: U-251
OVCAR-3 = test system: OVCAR-3
NCI-H460 = test system: NCI-H460
SK-MEL-5 = test system: SK-MEL-5
NCI-H226 = test system: NCI-H226
786-0 = test system: 786-0
OVCAR-4 = test system: OVCAR-4
M14 = test system: M14
PC-3 = test system: PC-3
Hs-578T = test system: Hs-578T
MDA-MB-435 = test system: MDA-MB-435
UACC-62 = test system: UACC-62
SR = test system: SR
MOLT-4 = test system: MOLT-4
SNB-19 = test system: SNB-19
HOP-62 = test system: HOP-62
SK-OV-3 = test system: SK-OV-3
OVCAR-5 = test system: OVCAR-5
IGROV-1 = test system: IGROV-1
RXF 393 = test system: RXF 393
SK-MEL-28 = test system: SK-MEL-28
TK-10 = test system: TK-10
SW-620 = test system: SW-620
K562 = test system: K562
SK-MEL-2 = test system: SK-MEL-2
RPMI-8226 = test system: RPMI-8226
MCF7 = test system: MCF7
UO-31 = test system: UO-31
SNB-75 = test system: SNB-75
A549 = test system: A549
SN12C = test system: SN12C
UACC-257 = test system: UACC-257
LOX IMVI = test system: LOX IMVI
NCI-H522 = test system: NCI-H522
CAKI-1 = test system: CAKI-1
KM12 = test system: KM12
HT-29 = test system: HT-29
T47D = test system: T47D
OVCAR-8 = test system: OVCAR-8
HL-60 = test system: HL-60

Measured: GI50

C=C1C(=O)OC2/C=C(\CO)C3OC3C3OC3(C)CC(OC(=O)/C(=C/C)CO)C12 (stereo not drawn)
inactive: HCT-116 35.8 µM | NCI-H23 60.3 µM | SF-268 37.2 µM | Malme-3M 25.5 µM | ACHN 49.5 µM | EKVX 44 µM | HOP-92 > 100 µM | MDA-MB-231 > 100 µM | CCRF-CEM 9.33 µM | MDA-N 36.6 µM | BT-549 45.4 µM | SF-295 > 100 µM | A498 > 100 µM | HCC 2998 > 100 µM | COLO 205 34.4 µM | DU-145 > 100 µM | SF-539 64 µM | NCI/ADR-RES > 100 µM | U-251 55.2 µM | OVCAR-3 > 100 µM | NCI-H460 > 100 µM | SK-MEL-5 > 100 µM | NCI-H226 > 100 µM | 786-0 36.8 µM | OVCAR-4 45.4 µM | M14 > 100 µM | PC-3 > 100 µM | Hs-578T > 100 µM | MDA-MB-435 53.8 µM | UACC-62 57.3 µM | SR 28.2 µM | MOLT-4 26.4 µM | SNB-19 > 100 µM | HOP-62 > 100 µM | SK-OV-3 > 100 µM | OVCAR-5 50.7 µM | IGROV-1 > 100 µM | RXF 393 47.1 µM | SK-MEL-28 42.1 µM | TK-10 > 100 µM | SW-620 30.1 µM | K562 24.8 µM | SK-MEL-2 > 100 µM | RPMI-8226 17 µM | MCF7 34.8 µM | UO-31 > 100 µM | SNB-75 > 100 µM | A549 > 100 µM | SN12C > 100 µM | UACC-257 > 100 µM | LOX IMVI 48.6 µM | NCI-H522 15.8 µM | CAKI-1 28.3 µM | KM12 > 100 µM | HT-29 54.7 µM | T47D 92.9 µM | OVCAR-8 86.3 µM
36.6 µM: HCT-15

O=C1c2cccnc2C(=O)c2c1nc1ccccc1c2-c1cncc(-c2c3c(nc4ccccc24)C(=O)c2cccnc2C3=O)c1
0.0251 µM: HCT-15
active: HCT-116 0.139 µM | NCI-H23 0.343 µM | SF-268 0.159 µM | Malme-3M 0.28 µM | ACHN 0.124 µM | EKVX 0.264 µM | MDA-MB-231 0.237 µM | CCRF-CEM 0.198 µM | MDA-N 0.399 µM | BT-549 0.502 µM | SF-295 0.614 µM | HCC 2998 0.359 µM | COLO 205 0.525 µM | DU-145 0.165 µM | NCI/ADR-RES 0.253 µM | U-251 0.146 µM | OVCAR-3 0.0752 µM | NCI-H460 0.19 µM | SK-MEL-5 0.0568 µM | NCI-H226 0.163 µM | 786-0 0.0995 µM | OVCAR-4 0.236 µM | M14 0.115 µM | PC-3 0.303 µM | Hs-578T 0.39 µM | MDA-MB-435 0.256 µM | UACC-62 0.474 µM | SR < 0.01 µM | HL-60 0.0687 µM | MOLT-4 0.117 µM | SNB-19 0.22 µM | HOP-62 0.281 µM | SK-OV-3 0.363 µM | IGROV-1 < 0.0144 µM | RXF 393 0.316 µM | SK-MEL-28 0.22 µM | TK-10 0.458 µM | SW-620 0.041 µM | K562 0.213 µM | SK-MEL-2 0.693 µM | RPMI-8226 0.141 µM | MCF7 0.157 µM | UO-31 0.244 µM | SNB-75 0.398 µM | A549 0.37 µM | SN12C 0.126 µM | UACC-257 0.318 µM | LOX IMVI 0.139 µM | NCI-H522 0.103 µM | CAKI-1 0.332 µM | KM12 0.212 µM | HT-29 0.327 µM | T47D 0.439 µM | OVCAR-8 0.0634 µM
inactive: A498 2.56 µM | SF-539 2.19 µM | OVCAR-5 1.8 µM

Cc1cc2cc3c(O)nc(O)nc3nc2cc1C
inactive: HCT-116 > 100 µM | NCI-H23 > 100 µM | SF-268 > 100 µM | Malme-3M > 100 µM | ACHN > 100 µM | EKVX > 100 µM | HOP-92 > 100 µM | MDA-MB-231 > 100 µM | MDA-N > 100 µM | BT-549 > 100 µM | SF-295 > 100 µM | A498 > 100 µM | COLO 205 > 100 µM | DU-145 > 100 µM | SF-539 > 100 µM | NCI/ADR-RES > 100 µM | U-251 > 100 µM | OVCAR-3 > 100 µM | NCI-H460 > 100 µM | SK-MEL-5 > 100 µM | NCI-H226 > 100 µM | 786-0 > 100 µM | OVCAR-4 > 100 µM | M14 > 100 µM | PC-3 > 100 µM | Hs-578T > 100 µM | MDA-MB-435 > 100 µM | UACC-62 > 100 µM | SR > 100 µM | HL-60 > 100 µM | MOLT-4 > 100 µM | SNB-19 > 100 µM | HOP-62 > 100 µM | SK-OV-3 > 100 µM | OVCAR-5 > 100 µM | IGROV-1 > 100 µM | RXF 393 52.2 µM | SK-MEL-28 > 100 µM | TK-10 > 100 µM | SW-620 > 100 µM | K562 > 100 µM | SK-MEL-2 > 100 µM | RPMI-8226 > 100 µM | MCF7 > 100 µM | UO-31 > 100 µM | SNB-75 27.6 µM | A549 > 100 µM | SN12C > 100 µM | UACC-257 > 100 µM | LOX IMVI > 100 µM | NCI-H522 > 100 µM | CAKI-1 > 100 µM | KM12 > 100 µM | HT-29 > 100 µM | T47D > 100 µM | OVCAR-8 > 100 µM
> 100 µM: HCT-15

O=c1c(O)c(-c2cc(O)c(O)cc2O)oc2cc(O)c(C3OC(CO)C(O)C(O)C3O)c(O)c12 (stereo not drawn)
> 100 µM: HCT-15
inactive: HCT-116 > 100 µM | SF-268 > 100 µM | ACHN > 100 µM | EKVX > 100 µM | HOP-92 > 100 µM | MDA-MB-231 > 100 µM | MDA-N > 100 µM | BT-549 > 100 µM | SF-295 > 100 µM | A498 > 100 µM | DU-145 > 100 µM | SF-539 > 100 µM | NCI/ADR-RES > 100 µM | U-251 > 100 µM | OVCAR-3 > 100 µM | NCI-H460 > 100 µM | NCI-H226 > 100 µM | 786-0 > 100 µM | OVCAR-4 > 100 µM | M14 > 100 µM | PC-3 > 100 µM | Hs-578T > 100 µM | MDA-MB-435 > 100 µM | UACC-62 > 100 µM | SR > 100 µM | HL-60 > 100 µM | MOLT-4 > 100 µM | SNB-19 > 100 µM | HOP-62 > 100 µM | SK-OV-3 > 100 µM | OVCAR-5 > 100 µM | IGROV-1 > 100 µM | SK-MEL-28 > 100 µM | TK-10 > 100 µM | SW-620 > 100 µM | K562 > 100 µM | SK-MEL-2 > 100 µM | RPMI-8226 > 100 µM | MCF7 > 100 µM | UO-31 > 100 µM | SNB-75 45.1 µM | A549 > 100 µM | SN12C > 100 µM | UACC-257 > 100 µM | LOX IMVI > 100 µM | NCI-H522 > 100 µM | KM12 > 100 µM | HT-29 > 100 µM | T47D > 100 µM | OVCAR-8 > 100 µM

Brc1ccc2c(c1)[C@H]1CCc3c([nH]c4ccccc34)[C@H]1N2
active: SR 0.889 µM | IGROV-1 0.369 µM
inactive: HCT-116 8.49 µM | NCI-H23 12.4 µM | SF-268 15.1 µM | Malme-3M 10.7 µM | ACHN 12.5 µM | EKVX 10.8 µM | HOP-92 13.3 µM | MDA-MB-231 1.6 µM | CCRF-CEM 3.91 µM | MDA-N 14.9 µM | BT-549 18.4 µM | SF-295 11.6 µM | HCC 2998 12.9 µM | COLO 205 11.5 µM | DU-145 12.9 µM | SF-539 2.36 µM | NCI/ADR-RES 14.2 µM | U-251 10.1 µM | OVCAR-3 10.6 µM | NCI-H460 12.4 µM | SK-MEL-5 3.13 µM | NCI-H226 12.1 µM | OVCAR-4 13 µM | M14 13.2 µM | PC-3 5.9 µM | Hs-578T 25.4 µM | MDA-MB-435 13.4 µM | UACC-62 11.5 µM | MOLT-4 2.2 µM | SNB-19 13.7 µM | HOP-62 10.9 µM | SK-OV-3 14.3 µM | OVCAR-5 11.7 µM | RXF 393 12 µM | SK-MEL-28 14 µM | TK-10 11.2 µM | SW-620 14.4 µM | K562 4.85 µM | SK-MEL-2 16.6 µM | RPMI-8226 4.39 µM | MCF7 3.42 µM | UO-31 11.4 µM | SNB-75 21.3 µM | A549 14.8 µM | SN12C 13 µM | UACC-257 12.8 µM | LOX IMVI 4.38 µM | CAKI-1 10.2 µM | KM12 5.31 µM | HT-29 14.1 µM | T47D 3.11 µM | OVCAR-8 13.3 µM
